{
  "source": "patent US20020127714A1",
  "about": "“Inhibitors of alternative alleles of genes encoding products that mediate cell response to environmental changes” (Variagenics, Inc., a Delaware corporation, priority 1998, published 2002)",
  "origin": "cited, not measured here",
  "key": {"[1]": {"tested_on": "serum asparagine", "conditions": "within hours of injection"}, "[2]": {"target": "T1, MGMT 160 arginine allele (Homo sapiens, UniProt P16455, G160R)", "T1 sequence (P16455 1-207 G160R)": "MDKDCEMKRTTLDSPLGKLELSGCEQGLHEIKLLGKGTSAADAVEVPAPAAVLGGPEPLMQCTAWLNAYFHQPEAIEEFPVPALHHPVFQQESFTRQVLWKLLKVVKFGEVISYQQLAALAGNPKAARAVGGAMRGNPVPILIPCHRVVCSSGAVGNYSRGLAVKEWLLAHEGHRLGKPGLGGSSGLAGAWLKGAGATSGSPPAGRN", "conditions": "160arg versus 160gly form of MGMT; also seen as reduced production of guanine from O6-benzyl[8-3H]guanine"}},
  "note": "Where two headings read alike, the source gives them in different places.",
  "data": [
    {"compound": "L-asparaginase", "values": [
      {"measurement": "blood levels of asparagine", "setting": "[1]", "result": "undetectable levels"}
    ]},
    {"compound": "Nc1nc(OCc2ccccc2)c2nc[nH]c2n1", "note": "[O6 benzylguanine, O6-benzylguanine]", "values": [
      {"measurement": "resistance of the 160 arginine allele to inactivation, measured as an increase in the ED50", "setting": "[2]", "result": "at least 20 fold"}
    ]},
    {"compound": "O=c1[nH]cc(F)c(=O)[nH]1", "note": "[5-FU, 5-fluorouracil]", "values": [
      {"measurement": "half life of 5-FU", "setting": "normals", "result": "0.13 to 0.333", "unit": "h"},
      {"measurement": "half life of 5-FU", "setting": "patients homozygous for mutant DPD alleles (DPD deficiency)", "result": "> 2.5", "unit": "h"}
    ]}
  ]
}
